The structures appear in SMILES notation. “Also recorded” adds a separate entry of the source.

In the experiment the test system is mouse FAT mRNA. Briefly: FAT mRNA expression in whole brain of mice treated with lithium or valproate, quantitative real-time PCR. Particulars: C57B16 mice, intraperitoneal once daily for 7 days (lithium 340 mg/kg/day; valproate 350 mg/kg/day). In general terms: In qPCR the cycle at which signal appears reflects the starting amount.

As for `CCCC(CCC)C(=O)O` [valproate, 2-propylpentanoic acid], the “effect on relative FAT mRNA expression level (relative to GAPDH mRNA)” value is given as “appear to reduce; also recorded: appears to be reduced”.

The values above are taken from patent US20070202502A1, “Assay For Bipolar Affective Disorder” (priority 2004, published 2007).
